SMILES strings stand for the structures. Entries after “also recorded” stand apart in the source; their conditions may differ.

Data set [1] deals with PGC-1α. As to the kind of experiment: PGC-1α expression (Western blotting, real-time RT-PCR). Format: in vivo, mouse. To be noted: combination therapy together with PD-L1 antibody. The procedure:
RNA was isolated from CD8^+ T cells or tumor cells with the RNeasy Mini Kit (Qiagen), followed by cDNA synthesis by reverse transcription. Real-time PCR for PGC-1α was performed using the following primers: Forward […] (SEQ ID NO: 1) and Reverse […] (SEQ ID NO: 2). To analyze the expression levels of genes associated with apoptosis and mitochondrial energy metabolism, RT2 Profiler PCR Array Gene Expression Kit PAMM-012Z or PAMM-008Z (Qiagen) was used. The list of genes included in this assay can be found in www.sabiosciences.com/Apoptosis.php.
(§1) CD8^+ T cells were isolated using mouse CD8 Microbeads (Miltenyi Biotec). After washing with PBS twice, 2×10^6 cells were solubilized in a lysis buffer containing 30 mM Tris-HCl (pH.7.4), 150 mM NaCl, 10% glycerol, 0.1% SDS, 1% Triton-X-100, 0.05% Na-Doc, 5 mM EDTA (pH.8.0), protease inhibitor mixture (Roche Molecular Biochemicals) and phosphatase inhibitors (Nacalai Tesque). After measurement of protein concentrations by DC protein assay (Bio-Rad), 4 μg of proteins was mounted on 4 to 20% gradient Mini-PROTEAN TGX Gels (Bio-Rad) and electroblotted onto nitrocellulose membranes, which were then incubated in a blocking buffer of TBS containing 1% BSA. Primary antibody incubations were carried out overnight at 4° C. in blocking buffer. After washing, secondary antibody incubations were carried out at room temperature for 40 min in blocking buffer. Blots were developed with enhanced chemiluminescence (Amersham Pharmacia). Primary antibodies recognizing the following proteins were used: Phospho-mTOR (P-mTOR) (Cat #5536), Phospho-AMPKa (P-AMPK) (#2535), Phospho-p70 S6 Kinase (P-S6K) (#9205), 4E-BP1 (#9644), Phospho-Acetyl-CoA Carboxylase (P-ACC) (#3661) and SIRT1 (#9475). All the primary antibodies were obtained from Cell Signaling Technology. An antibody recognizing PGC-1α (SC-13067) was obtained from Santa Cruz.
For orientation: Immunoblotting shows a protein as a band on a membrane.

Data set [2] concerns tumor cells. As to the kind of experiment: Phenotypic and transcription profile analysis of tumor cells from mice treated with reagent alone. To be noted: tumor cells from mice treated with reagent alone in vivo. On the set-up: species or system mouse. An excerpt:
FIG. 12. […] After enzymatic digestion, tumor cells were sorted with a cell isolation kit capable of excluding non-tumor cells. The isolated tumor cells were further purified with Aria and used in the following experiments. b) Tumor cells were stained with antibodies targeting PD-L1, MHC class I, CD155 (ligand of TIGIT), and VISTA or with dyes for mitochondrial mass, membrane potential, and superoxide. c) Expression levels of genes associated with mitochondrial energy metabolism and apoptosis were examined using RT^2 profiler PCR Kit.
For analyzing draining lymph nodes, cells from axillary, brachial, and inguinal lymph nodes on the right side of tumor-inoculated mice were harvested and mixed. Averaged cell numbers per one lymph node were used as absolute cell numbers. For tumor analysis, tumor tissues were minced into 2- to 3-mm pieces with scissors and digested with collagenase type IV (Thermo Fisher Scientific) using a gentle MACS Dissociator (Miltenyi Biotec). The numbers of tumor cells per mg were used as absolute numbers. Tumor cells were isolated from digested tumor tissues using a Tumor Cell Isolation Kit, mouse (Miltenyi Biotec). This kit purifies tumor cells by excluding lymphocytes, red blood cells, fibroblasts, endothelial cells and tumor-associated stromal cells. The resultant tumor cell population was further isolated/purified with FACS Aria (BD Biosciences). […]

The test system of data set [3] is CD8+ T cells. The procedure:
FIG. 6. […] Draining lymph node (DLN) cells on day 14 were stained with anti-CD8, -CD62L, and -CD44 antibodies, and then CD8^+ T cells were gated. P1 to P3 populations were defined based on the intensities of CD62L and CD44 (Upper). The absolute cell numbers of P1 to P3 in each group were calculated. […] Representative FACS profiles of P1 to P3 (Upper). Representative FACS profiles of the P3 population stained with each mitochondrial dye in each group (Middle). MFI of P1 to P3 stained with each dye was compared between treated groups. Colors correspond to the P1 to P3 populations. […] CD45^+ CD8^+ T cells were gated, and their CD62L and CD44 phenotypes were analyzed (Left). The frequencies of CD8^+ T cells in CD45^+ T cells and the absolute numbers of CD45^+ CD8^+ T cells were compared between groups (Right). Data represent the means±SEM of five mice. *p<0.05, **p<0.01, one-way ANOVA analysis. FACS data are representative of five mice in each group.
For analyzing draining lymph nodes, cells from axillary, brachial, and inguinal lymph nodes on the right side of tumor-inoculated mice were harvested and mixed. Averaged cell numbers per one lymph node were used as absolute cell numbers. For tumor analysis, tumor tissues were minced into 2- to 3-mm pieces with scissors and digested with collagenase type IV (Thermo Fisher Scientific) using a gentle MACS Dissociator (Miltenyi Biotec). The numbers of tumor cells per mg were used as absolute numbers. Tumor cells were isolated from digested tumor tissues using a Tumor Cell Isolation Kit, mouse (Miltenyi Biotec). This kit purifies tumor cells by excluding lymphocytes, red blood cells, fibroblasts, endothelial cells and tumor-associated stromal cells. The resultant tumor cell population was further isolated/purified with FACS Aria (BD Biosciences).
The following antibodies recognizing the indicated antigens were used: CD44 (1M7), CD45.2 (104), CD45.1 (A20), CD8 (53-6.7), CD62L (MEL-14), T-bet (4B/O) and IFN-7 (XMG1.2), MHC class I (AF6-88.5), CD155 (Tx56) and VISTA (MIH63) from BioLegend; p-AMPK (EPR5683) from Ancam; p-mTOR (MRRBY), Eomes (Danllmag) and PD-L1 (M1H5) from eBioscience. All flow cytometry experiments were performed on a FACS Canto II (BD Biosciences) and analyzed using FlowJo software (FLOWJO, LLC). For assessment of intracellular phosphoproteins, cells were permeabilized with 0.5% Triton-X and fixed with 1.5% PFA before staining. Determination of mitochondrial mass, membrane potential, mitochondrial superoxide and cellular ROS was performed using MitoTracker Green, Mito-Tracker Deep Red, MitoSOX Red, and CellROX Green reagents, respectively (all from Life Technologies). […]

The test system of data set [4] is mTOR and its associated proteins S6K and 4EBP1. As to the kind of experiment: Western blotting of DLN CD8+ T cells, mTOR pathway. To be noted: CD8+ T cells from mice treated with PD-L1 antibody and reagent. Format: in vivo, mouse. Here is the method:
FIG. 7. […] Phosphorylation of AMPK, ACC, mTOR and S6K and the expression of SIRT1 and 4EBP1 were analyzed by Western blotting. b) MC38-bearing mice were treated with PD-L1 antibody in combination with AMPK activator (A769662) and/or mTOR activator (MHY1485) according to the same schedule as shown in FIG. 3b.
as §1, with “Primary antibodies recognizing the following proteins were used: Phospho-mTOR (P-mTOR) (Cat #5536), Phospho-AMPKa (P-AMPK) (#2535), Phospho-p70 S6 Kinase (P-S6K) (#9205), 4E-BP1 (#9644), Phospho-Acetyl-CoA Carboxylase (P-ACC) (#3661) and SIRT1 (#9475). All the primary antibodies were obtained from Cell Signaling Technology. An antibody recognizing PGC-1α (SC-13067) was obtained from Santa Cruz.” left out

The test system of data set [5] is IFN-γ. As to the kind of experiment: Intracellular IFN-γ staining of CD8+ T cells from digested tumor tissues. Format: in vivo, mouse. To be noted: CD8+ T cells in tumors; combined with PD-L1 antibody. The procedure: FIG. 15. […] Data represent the means±SEM of five mice. *p<0.05, **p<0.01, one-way ANOVA.
The following antibodies recognizing the indicated antigens were used: CD44 (1M7), CD45.2 (104), CD45.1 (A20), CD8 (53-6.7), CD62L (MEL-14), T-bet (4B/O) and IFN-7 (XMG1.2), MHC class I (AF6-88.5), CD155 (Tx56) and VISTA (MIH63) from BioLegend; p-AMPK (EPR5683) from Ancam; p-mTOR (MRRBY), Eomes (Danllmag) and PD-L1 (M1H5) from eBioscience. All flow cytometry experiments were performed on a FACS Canto II (BD Biosciences) and analyzed using FlowJo software (FLOWJO, LLC). For assessment of intracellular phosphoproteins, cells were permeabilized with 0.5% Triton-X and fixed with 1.5% PFA before staining. Determination of mitochondrial mass, membrane potential, mitochondrial superoxide and cellular ROS was performed using MitoTracker Green, Mito-Tracker Deep Red, MitoSOX Red, and CellROX Green reagents, respectively (all from Life Technologies). These dyes were added to cells to a final concentration of 0.125 μM, 0.125 μM, 5.0 μM and 0.625 μM, respectively, and incubated at 37° C. in a 5% CO2 humidified incubator for 30 min.

As to `N#CC(C#N)=NNc1ccc(OC(F)(F)F)cc1` [FCCP, carbonyl cyanide p-trifluoromethoxyphenylhydrazone], the “expression levels of PGC-1α protein and mRNA” value in data set [1] is given as “increased”. The “changes in immune-regulatory surface markers and transcriptional profiles of tumor cells” value in data set [2] is recorded as “did not show a significant difference; also recorded: little effect on tumor cells in vivo”. Further, in data set [3] (MC38-bearing mice, FCCP combined with PD-L1 antibody), the “mitochondrial membrane potential and ROS in P3 population” value was “significantly augmented”. Moreover, the “absolute number and proportion of effector CD8+ T cells (CD62L- CD44+, P3) in DLNs” value in data set [3] (MC38-bearing mice, PD-L1 antibody + FCCP vs anti-PD-L1 antibody alone) is reported as “significantly increased; also recorded: Increase”. Moreover, the “numbers of naive T cells (P1) and central memory T cells (P2) in DLNs” value in data set [3] (MC38-bearing mice, PD-L1 antibody alone, or addition of FCCP) is on record as “no further increase”. Further, the “toxic effects such as decrease in mitochondrial mass or fall in membrane potential” value in data set [3] (at the dose used (1.2 mg/kg)) is on record as “did not have toxic effects”. The “activation of mTOR and its associated proteins S6K and 4EBP1” value in data set [4] is recorded as “also found to be activated”. In addition, the IFN-γ production result in data set [5] is “increased; also recorded: up-regulated”.

Source of the values: patent publication US20230272077A1, “PD-1 SIGNAL INHIBITOR COMBINATION THERAPY” (KYOTO UNIVERSITY, priority 2015, published 2023).
